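48-hour exposure; five concentrations; linearly interpolated endpoints. Here, GI50 denotes the concentration required for 50% inhibition of growth. TGI: concentration producing complete growth inhibition.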
What follows are compounds tested on SK-MEL-28 melanoma (assay: NCI-60 cell line screen, 48 h).

| SMILES | TGI [µM] |
| --- | --- |
| Cc1cc(C)cc(C(=N)c2ccccc2Cc2cccc3ccccc23)c1 | 34.7 |
| CCCCCC(C[N+]1(C)CCOCC1)C(=O)/C=C/c1ccccc1 (configuration not stated) | 30 |
| CC1(C#N)CC(C)(C)C(/C=C2/CC(C)(C)C(/C=C3/OC(=N)CC3(C)C)=N2)=N1 (configuration not stated) | > 100 |
| COc1ccc(C[N+]23C(CC[C@H]2c2ccccc2)CC[C@H]3c2ccccc2)cc1 (some centres not stated) | > 100 |
| CCOC(=O)CC1c2ccc(O)cc2OC(=O)C1c1ccc([N+](=O)[O-])cc1 (configuration not stated) | > 100 |
| CCOC(=O)C1(C(=O)OCC)CN(CC)CN(c2ccccc2)C1 | 38.8 |

The compounds below were run on SK-MEL-5 melanoma (assay: NCI-60 cell line screen, 48 h).

| SMILES | TGI [µM] |
| --- | --- |
| CSC1=C(SC)SC(=C2SC3=C(SC(=C4SCCS4)S3)S2)S1 | > 100 |
| CCN(CC)c1ccc2cc(-c3nnc(-c4ccccc4)o3)c(=O)oc2c1 | > 100 |
| CC1=C(C(N)=O)C(c2ccncc2)C(C#N)=C2SCC(=O)N12 (configuration not stated) | > 100 |
| CC(=O)c1sc2c(c1OC(=O)c1cccs1)c(=O)n(-c1ccccc1)c(=S)n2-c1ccccc1 | 25.8 |
| C[C@]12CCC(=O)C=C1CC[C@@H]1C2CC[C@]2(C)c3nn(-c4ccc(F)cc4)nc3CC12 (some centres not stated) | > 100 |
| CN(C)C(=O)NCCN1CCCCCc2ccccc21 | 71.9 |
| CN(Nc1cc(=O)[nH]c(=O)[nH]1)c1ccccc1 | > 100 |
| Clc1ccc(Cl)c(Nc2ccnc(SCc3ccccc3)n2)c1 | > 100 |
| CCOC(=O)C1=C(Nc2cccc(OC)c2)OCC1=O | > 100 |
| O=C(NCCCNC(=O)c1ccc2c(O)c(O)ccc2c1)c1ccc2c(O)c(O)ccc2c1 | 46.9 |
| O=C1/C(=C\c2ccc([N+](=O)[O-])o2)SC2N=C(COc3ccc(Cl)cc3)NN12 (configuration not stated) | 27.1 |
| CO[C@H]1[C@@H](O)[C@@H](C)O[C@@H](O[C@H]2CC[C@@]3(C)[C@H](CC[C@@H]4[C@@H]3CC[C@]3(C)[C@@H](C5=CC(=O)OC5)[C@@H](OC(C)=O)C[C@]43O)C2)[C@@H]1O | 0.201 |
| O=C(C(=O)N1CCc2ccccc21)c1c[nH]c2ccccc12 | > 10 |
| Cn1ccc(C(=O)NCCOCCNC(=O)c2ccn(C)c(=O)c2O)c(O)c1=O | > 100 |
| CC1=C(Br)C(Br)=C(C)S1=O | 22.1 |
| N#CSc1nc[nH]c1C(N)=O | > 100 |
| COc1ccnc2c1C(=O)c1nc3ccccc3c3ccnc-2c13 | 0.437 |

| SMILES | TGI [µM] |
| --- | --- |
| C[C@H]1[C@H](C)CC[C@]2(C)CC[C@]3(C)C(=C[C@@H](O)[C@@H]4[C@@]5(C)[C@H](O)[C@@H](O)[C@H](O)C(C)(C)[C@@H]5CC[C@]43C)[C@H]12 | > 100 |
| C=CCN1C[C@H](C)N([C@H](c2ccc(C(=O)N(CC)CCO)cc2)c2cccc(OC)c2)C[C@H]1C | > 100 |
| CCC1c2[nH]c3ccccc3c2C[C@H]2C(=O)NC(COC(C)(C)C)C(=O)N12 (some centres not stated) | 93.3 |
| CCOC(=O)CC1CCN(C(=O)c2ccccc2)C2Cc3c([nH]c4ccccc34)C12C[N+](=O)[O-] (configuration not stated) | > 100 |
| CN1CCOC1(C)CO (configuration not stated) | > 100 |
| CC1=CC(C2/C(=N/O)C=C(C)CC2(C)C)C(O)C(C)(C)C1 (configuration not stated) | 29.5 |
| c1cc(-c2ncc(-c3ccc4c(c3)CCCO4)o2)ccn1 | 21.2 |
| COC(=O)C1=C(C)NC(C)=C(C(=O)OC)C1c1ccc(/[N+]([O-])=C/c2ccccc2)cc1 | > 100 |
| CC(=O)OC1CC2c3cccc4c3C(CC2N(C)C1=O)CN4C(=O)c1ccccc1 (configuration not stated) | 29.1 |
| COc1ccc2c3c1O[C@H]1C(O)CCC4(O)[C@@H](C2)NCC[C@]314 (some centres not stated) | > 100 |
| Cc1cc(C)cc(C(=N)c2ccccc2Cc2cccc3ccccc23)c1 | 31.9 |
| CCCCCC(C[N+]1(C)CCOCC1)C(=O)/C=C/c1ccccc1 (configuration not stated) | 28.1 |
| CC1(C#N)CC(C)(C)C(/C=C2/CC(C)(C)C(/C=C3/OC(=N)CC3(C)C)=N2)=N1 (configuration not stated) | 32.4 |
| COc1ccc(C[N+]23C(CC[C@H]2c2ccccc2)CC[C@H]3c2ccccc2)cc1 (some centres not stated) | 15.7 |
| CCOC(=O)CC1c2ccc(O)cc2OC(=O)C1c1ccc([N+](=O)[O-])cc1 (configuration not stated) | 29 |
| CCOC(=O)C1(C(=O)OCC)CN(CC)CN(c2ccccc2)C1 | > 100 |

These compounds were tested on T-47D breast (assay: NCI-60 cell line screen, 48 h).

| SMILES | TGI [µM] | GI50 [µM] |
| --- | --- | --- |
| CSC1=C(SC)SC(=C2SC3=C(SC(=C4SCCS4)S3)S2)S1 | > 100 |  |
| CCN(CC)c1ccc2cc(-c3nnc(-c4ccccc4)o3)c(=O)oc2c1 | > 71.4 |  |
| CC1=C(C(N)=O)C(c2ccncc2)C(C#N)=C2SCC(=O)N12 (configuration not stated) | > 100 |  |
| CC(=O)c1sc2c(c1OC(=O)c1cccs1)c(=O)n(-c1ccccc1)c(=S)n2-c1ccccc1 | > 100 |  |
| C[C@]12CCC(=O)C=C1CC[C@@H]1C2CC[C@]2(C)c3nn(-c4ccc(F)cc4)nc3CC12 (some centres not stated) | > 100 |  |
| CN(C)C(=O)NCCN1CCCCCc2ccccc21 | > 100 |  |
| CN(Nc1cc(=O)[nH]c(=O)[nH]1)c1ccccc1 | > 100 |  |
| CC(=O)Oc1ccccc1-c1cc2ccccc2oc1=O | > 100 |  |
| Clc1ccc(Cl)c(Nc2ccnc(SCc3ccccc3)n2)c1 | > 100 |  |
| CCOC(=O)C1=C(Nc2cccc(OC)c2)OCC1=O | > 100 |  |
| O=C(NCCCNC(=O)c1ccc2c(O)c(O)ccc2c1)c1ccc2c(O)c(O)ccc2c1 | > 100 |  |
| O=C1/C(=C\c2ccc([N+](=O)[O-])o2)SC2N=C(COc3ccc(Cl)cc3)NN12 (configuration not stated) | 7.54 |  |
| CO[C@H]1[C@@H](O)[C@@H](C)O[C@@H](O[C@H]2CC[C@@]3(C)[C@H](CC[C@@H]4[C@@H]3CC[C@]3(C)[C@@H](C5=CC(=O)OC5)[C@@H](OC(C)=O)C[C@]43O)C2)[C@@H]1O | 0.435 |  |
| O=C(C(=O)N1CCc2ccccc21)c1c[nH]c2ccccc12 | > 10 |  |
| Cn1ccc(C(=O)NCCOCCNC(=O)c2ccn(C)c(=O)c2O)c(O)c1=O | > 100 |  |
| CC1=C(Br)C(Br)=C(C)S1=O | > 100 |  |
| N#CSc1nc[nH]c1C(N)=O | > 100 |  |

| SMILES | TGI [µM] | GI50 [µM] |
| --- | --- | --- |
| COc1ccnc2c1C(=O)c1nc3ccccc3c3ccnc-2c13 | 1.34 |  |
| CC(=O)N(C(=O)CC(=O)N/N=C\c1ccc(Br)c(N(CCC#N)CCC#N)c1)c1ccc(Cl)cc1 | > 100 |  |
| C[C@H]1[C@H](C)CC[C@]2(C)CC[C@]3(C)C(=C[C@@H](O)[C@@H]4[C@@]5(C)[C@H](O)[C@@H](O)[C@H](O)C(C)(C)[C@@H]5CC[C@]43C)[C@H]12 | > 100 | 18.7 |
| C=CCN1C[C@H](C)N([C@H](c2ccc(C(=O)N(CC)CCO)cc2)c2cccc(OC)c2)C[C@H]1C | > 100 |  |
| CCC1c2[nH]c3ccccc3c2C[C@H]2C(=O)NC(COC(C)(C)C)C(=O)N12 (some centres not stated) | > 100 |  |
| CCOC(=O)CC1CCN(C(=O)c2ccccc2)C2Cc3c([nH]c4ccccc34)C12C[N+](=O)[O-] (configuration not stated) | > 100 |  |
| CC12CCC(C(=O)OC1=O)C2(C)C (configuration not stated) | > 100 |  |
| CN1CCOC1(C)CO (configuration not stated) | > 100 |  |
| CC1=CC(C2/C(=N/O)C=C(C)CC2(C)C)C(O)C(C)(C)C1 (configuration not stated) | 28.1 |  |
| c1cc(-c2ncc(-c3ccc4c(c3)CCCO4)o2)ccn1 | 63.7 |  |
| COC(=O)C1=C(C)NC(C)=C(C(=O)OC)C1c1ccc(/[N+]([O-])=C/c2ccccc2)cc1 | 40.6 |  |
| CC(=O)OC1CC2c3cccc4c3C(CC2N(C)C1=O)CN4C(=O)c1ccccc1 (configuration not stated) | > 100 |  |
| COc1ccc2c3c1O[C@H]1C(O)CCC4(O)[C@@H](C2)NCC[C@]314 (some centres not stated) | > 100 |  |
| Cc1cc(C)cc(C(=N)c2ccccc2Cc2cccc3ccccc23)c1 | 46.3 |  |
| CC1(C#N)CC(C)(C)C(/C=C2/CC(C)(C)C(/C=C3/OC(=N)CC3(C)C)=N2)=N1 (configuration not stated) | 61.8 |  |
| COc1ccc(C[N+]23C(CC[C@H]2c2ccccc2)CC[C@H]3c2ccccc2)cc1 (some centres not stated) | 61.5 |  |
| CCOC(=O)CC1c2ccc(O)cc2OC(=O)C1c1ccc([N+](=O)[O-])cc1 (configuration not stated) | 60 |  |

What follows are compounds tested on UO-31 renal (assay: NCI-60 cell line screen, 48 h).

| SMILES | TGI [µM] |
| --- | --- |
| CSC1=C(SC)SC(=C2SC3=C(SC(=C4SCCS4)S3)S2)S1 | > 100 |
| CCN(CC)c1ccc2cc(-c3nnc(-c4ccccc4)o3)c(=O)oc2c1 | > 100 |
| CC1=C(C(N)=O)C(c2ccncc2)C(C#N)=C2SCC(=O)N12 (configuration not stated) | > 100 |
| C[C@]12CCC(=O)C=C1CC[C@@H]1C2CC[C@]2(C)c3nn(-c4ccc(F)cc4)nc3CC12 (some centres not stated) | > 100 |
| CN(C)C(=O)NCCN1CCCCCc2ccccc21 | > 100 |
| CN(Nc1cc(=O)[nH]c(=O)[nH]1)c1ccccc1 | > 100 |
| CC(=O)Oc1ccccc1-c1cc2ccccc2oc1=O | > 100 |
| Clc1ccc(Cl)c(Nc2ccnc(SCc3ccccc3)n2)c1 | > 100 |
| CCOC(=O)C1=C(Nc2cccc(OC)c2)OCC1=O | > 100 |
| O=C(NCCCNC(=O)c1ccc2c(O)c(O)ccc2c1)c1ccc2c(O)c(O)ccc2c1 | 65.7 |
| O=C1/C(=C\c2ccc([N+](=O)[O-])o2)SC2N=C(COc3ccc(Cl)cc3)NN12 (configuration not stated) | 23 |
| CO[C@H]1[C@@H](O)[C@@H](C)O[C@@H](O[C@H]2CC[C@@]3(C)[C@H](CC[C@@H]4[C@@H]3CC[C@]3(C)[C@@H](C5=CC(=O)OC5)[C@@H](OC(C)=O)C[C@]43O)C2)[C@@H]1O | 0.0686 |
| O=C(C(=O)N1CCc2ccccc21)c1c[nH]c2ccccc12 | > 10 |
| Cn1ccc(C(=O)NCCOCCNC(=O)c2ccn(C)c(=O)c2O)c(O)c1=O | > 100 |
| CC1=C(Br)C(Br)=C(C)S1=O | 39.3 |
| N#CSc1nc[nH]c1C(N)=O | > 100 |
| COc1ccnc2c1C(=O)c1nc3ccccc3c3ccnc-2c13 | 0.894 |

| SMILES | TGI [µM] |
| --- | --- |
| CC(=O)N(C(=O)CC(=O)N/N=C\c1ccc(Br)c(N(CCC#N)CCC#N)c1)c1ccc(Cl)cc1 | > 100 |
| C[C@H]1[C@H](C)CC[C@]2(C)CC[C@]3(C)C(=C[C@@H](O)[C@@H]4[C@@]5(C)[C@H](O)[C@@H](O)[C@H](O)C(C)(C)[C@@H]5CC[C@]43C)[C@H]12 | > 100 |
| C=CCN1C[C@H](C)N([C@H](c2ccc(C(=O)N(CC)CCO)cc2)c2cccc(OC)c2)C[C@H]1C | > 100 |
| CCC1c2[nH]c3ccccc3c2C[C@H]2C(=O)NC(COC(C)(C)C)C(=O)N12 (some centres not stated) | > 100 |
| CCOC(=O)CC1CCN(C(=O)c2ccccc2)C2Cc3c([nH]c4ccccc34)C12C[N+](=O)[O-] (configuration not stated) | > 100 |
| CC12CCC(C(=O)OC1=O)C2(C)C (configuration not stated) | > 100 |
| CN1CCOC1(C)CO (configuration not stated) | > 100 |
| CC1=CC(C2/C(=N/O)C=C(C)CC2(C)C)C(O)C(C)(C)C1 (configuration not stated) | 29 |
| c1cc(-c2ncc(-c3ccc4c(c3)CCCO4)o2)ccn1 | > 100 |
| COC(=O)C1=C(C)NC(C)=C(C(=O)OC)C1c1ccc(/[N+]([O-])=C/c2ccccc2)cc1 | > 100 |
| CC(=O)OC1CC2c3cccc4c3C(CC2N(C)C1=O)CN4C(=O)c1ccccc1 (configuration not stated) | 42.1 |
| COc1ccc2c3c1O[C@H]1C(O)CCC4(O)[C@@H](C2)NCC[C@]314 (some centres not stated) | > 100 |
| Cc1cc(C)cc(C(=N)c2ccccc2Cc2cccc3ccccc23)c1 | > 100 |
| CCCCCC(C[N+]1(C)CCOCC1)C(=O)/C=C/c1ccccc1 (configuration not stated) | 29.7 |
| COc1ccc(C[N+]23C(CC[C@H]2c2ccccc2)CC[C@H]3c2ccccc2)cc1 (some centres not stated) | > 100 |
| CCOC(=O)C1(C(=O)OCC)CN(CC)CN(c2ccccc2)C1 | 46.6 |

— PubChem BioAssay (NCI)
